Tests used:
[1] = system: MOLM-14 D835Y cells, FLT3 ITD and FLT3 D835Y; experiment: Cell proliferation assay (CellTiter-Glo), MOLM-14 D835Y; type: cell-based; conditions: Homo sapiens, 72 h, 3d-Growth, GMean
Description: The FLT3 inhibitors may be assessed using the MOLM-14, Acute Myeloid Leukemia cell line that endogenously expresses FLT3 ITD or derivatives of the human FLT3 AML cell line which acquired the D835Y (activation loop) of F691L (gatekeeper) mutation after selection in escalating doses of the FLT3 Inhibitor AC220. FLT3 inhibitors may also be assessed using cells that are engineered to express mutant FLT3. For engineered cells, murine Ba/F3 cells were transfected with full-length FLT3 ITD/D835Y mutations. The parental BA/F3 cells are dependent upon Interleukin-3 (IL-3) for survival, and introduction of the FLT3 constructs rendered these cells dependent upon FLT3 kinase activity when cultured in the absences of IL-3. Engineered BA/F3 cell growth assays can be performed in either the […] of IL-3, to assess the compound inhibition of FLT3 or to detect the presence of off-target activity, respectively. Inhibitors of FLT3 kinase activity reduce or eliminate the FLT3 oncogenic signaling, resulting in reduced cell proliferation. This inhibition is measured as a function of compound concentration to asses IC50 values.
Cell lines used in proliferation assays are as follows in Table 3:
Cells were seeded at 1×10^4 cells per well of a 96 well cell culture plate in 50 μl of cell culture medium. Compounds were dissolved in DMSO, typically at a concentration of 0.5 mM and were serially diluted 1:3 for a total of eight points and added to the cells to final concentrations of […], 0.0041, 0.0014 and 0.00046 μM in 100 μl cell culture medium (final concentration 0.2% DMSO). […] The cells were incubated at 37° C., 5% CO2 for three days. CellTiter-Glo Buffer (Promega Cell Viability Assay catalog #G7573) and substrate were equilibrated to room temperature, and enzyme/substrate Recombinant Firefly Luciferase/Beetle Luciferin was reconstituted. The cell plates were equilibrated to room temperature for 30 minutes, then lysed by addition of an equivalent volume of the Celltiter-Glo Reagent. The plate was mixed for 10 minutes on a plate shaker to lyse the cells. The plates were read on a Tecan M1000 using Luminescence protocol modified to read 0.1 s per well. The luminescence reading assesses the ATP content, which correlates directly with cell number such that the reading as a function of compound concentration was used to determine the IC50 value.

[2] = molecular target: T1, FLT3-D835Y (Homo sapiens, UniProt P36888, D835Y); experiment: AlphaScreen kinase assay with recombinant enzyme, FLT3-D835Y; type: biochemical; conditions: 8pt, GMean
T1 construct: purchased Invitrogen PV3967
T1 sequence (P36888 27-993 D835Y): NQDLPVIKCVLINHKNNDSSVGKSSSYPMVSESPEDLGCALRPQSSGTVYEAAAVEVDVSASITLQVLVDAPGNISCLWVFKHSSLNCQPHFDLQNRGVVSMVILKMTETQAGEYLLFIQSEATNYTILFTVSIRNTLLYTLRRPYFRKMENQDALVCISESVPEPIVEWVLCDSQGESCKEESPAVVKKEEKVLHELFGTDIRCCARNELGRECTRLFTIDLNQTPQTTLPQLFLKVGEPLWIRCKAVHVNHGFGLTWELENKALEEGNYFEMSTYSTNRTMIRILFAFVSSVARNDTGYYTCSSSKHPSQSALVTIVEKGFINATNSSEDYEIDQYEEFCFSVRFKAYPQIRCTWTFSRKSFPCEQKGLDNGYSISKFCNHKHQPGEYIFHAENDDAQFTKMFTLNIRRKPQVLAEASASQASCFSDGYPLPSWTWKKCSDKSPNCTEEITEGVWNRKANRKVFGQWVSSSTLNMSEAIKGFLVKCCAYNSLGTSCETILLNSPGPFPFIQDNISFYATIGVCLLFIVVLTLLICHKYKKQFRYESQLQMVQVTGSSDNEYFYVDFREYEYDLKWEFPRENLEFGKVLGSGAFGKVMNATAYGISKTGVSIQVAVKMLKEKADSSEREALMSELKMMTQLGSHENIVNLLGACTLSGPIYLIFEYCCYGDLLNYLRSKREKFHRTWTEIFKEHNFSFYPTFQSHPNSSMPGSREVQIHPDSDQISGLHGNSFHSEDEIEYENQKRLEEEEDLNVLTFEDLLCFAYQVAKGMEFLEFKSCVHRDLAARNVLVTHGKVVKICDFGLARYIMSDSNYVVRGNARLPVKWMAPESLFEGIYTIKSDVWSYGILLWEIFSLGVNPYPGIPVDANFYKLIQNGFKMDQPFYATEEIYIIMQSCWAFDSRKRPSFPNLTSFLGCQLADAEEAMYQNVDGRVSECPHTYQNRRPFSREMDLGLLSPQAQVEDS
Procedure: In order to determine the effect of compounds on FLT3 catalytic activity, kinase assays using recombinant enzymes and AlphaScreen® technology have been established. The catalytic activity of c-kit activity was also measured to determine selectivity of the compounds. When the kinases are catalytically active, they phosphorylate a biotinylated peptide substrate on tyrosine residues. Using AlphaScreen® technology, the ability of the compounds to affect the catalytic activity of the kinases can be measured quantitatively. The peptide substrate is immobilized by the AlphaScreen® Streptavidin Donor beads and, upon phosphorylation by a tyrosine kinase, can bind to AlphaScreen® Anti-Phosphotyrosine (PY20) Acceptor beads. Upon excitation of these beads with laser light at 680 nm, singlet oxygen is produced. This singlet oxygen is rapidly quenched, unless the AlphaScreen® Anti-Phosphotyrosine (PY20) Acceptor beads are in close proximity, in which case a proximity signal can be measured at 580 nm. In the presence of catalytic activity, there is a very strong proximity signal. Selective kinase inhibitors affect a decrease in this proximity signal through a decrease in tyrosine phosphorylation of the peptide substrate.
The assay was performed as summarized below.
Poly (Glu4-Tyr) Peptide, biotin conjugate [Biotin-GG(EEEEY)10EE] (SEQ ID NO: 4)
Final concentration=30 nM
Final concentration for IC50 determination=10 μM (FLT3-D835Y or FLT3-ITD) or 100 μM (c-KIT)
AlphaScreen® Phosphotyrosine (PY20) Assay Kit
Final concentration=10 μg/mL
Dilute compounds in DMSO to 20× final concentration.
Add 1 μl of compound to each well of 384 well reaction plate (Perkin Elmer #6005359).
Mix enzyme and Poly (Glu4-Tyr) Peptide substrate at 1.33× final concentration in assay buffer.
Mix ATP at 5× final concentration in assay buffer.
Add 15 μL enzyme/substrate mixture to the reaction plate.
Add 4 μL of ATP to the reaction plate.
Mix Streptavidin Donor beads at 6× final concentration in Stop/Detection buffer.
Add 5 μL Streptavidin Donor beads to the reaction plate. Centrifuge 1 minute, shake to mix, and incubate at room temperature for 20 minutes.
Mix Anti-Phosphotyrosine (PY20) Acceptor beads at 6× final concentration in Stop/Detection buffer.
Add 5 μL Anti-Phosphotyrosine (PY20) beads to the reaction plate.
Centrifuge 1 minute, shake to mix, and incubate at room temperature for 60 minutes.
Read plate on Wallac EnVision™ 2103 Multilabel Reader.

Question: How did the IC50 [1] turn out when CC(C)(C#N)NC(=O)c1cccc(-c2cnc3[nH]c(-c4cnn(C5CC5)c4)cc3c2)n1 [Compound P-0165, N-(1-cyano-1-methyl-ethyl)-6-[2-(1-cyclopropylpyrazol-4-yl)-1H-pyrrolo[2,3-b]pyridin-5-yl]pyridine-2-carboxamide] was run?
Answer: The IC50 was 0.0001 to 10 µM.

Question: What about the IC50 [2] of the same compound?
Answer: Its IC50 is 0.0001 to 10 µM.

Question: Which IC50 [1] does the source give for N#C[C@@H]1CCN(C(=O)c2cccc(-c3cnc4[nH]c(-c5ccccc5)cc4c3)n2)C1 [Compound P-0122, (3R)-1-[6-(2-phenyl-1H-pyrrolo[2,3-b]pyridin-5-yl)pyridine-2-carbonyl]pyrrolidine-3-carbonitrile] here?
Answer: The IC50 was 0.0001 to 10 µM.

Question: What about the IC50 [2] of the same compound?
Answer: Its IC50 is 0.0001 to 10 µM.

Question: For COC1CCN(C(=O)c2cccc(-c3cnc4[nH]c(-c5ccccc5)cc4c3)n2)C1 (centres unmarked) [Compound P-0095, (3-methoxypyrrolidin-1-yl)-[6-(2-phenyl-1H-pyrrolo[2,3-b]pyridin-5-yl)-2-pyridyl]methanone], which IC50 [1] is on record?
Answer: The IC50 was 0.0001 to 10 µM.

Question: What about the IC50 [2] of the same compound?
Answer: Its IC50 is 0.0001 to 10 µM.

Question: Which results are given for CC(C)(C#N)NC(=O)c1cccc(-c2cnc3[nH]c(C#Cc4ccccc4)cc3c2)n1 [Compound P-0176, N-(1-cyano-1-methyl-ethyl)-6-[2-(2-phenylethynyl)-1H-pyrrolo[2,3-b]pyridin-5-yl]pyridine-2-carboxamide]?
Answer: IC50 [1]: 0.0001 to 10 µM; IC50 [2]: 0.0001 to 10 µM

Question: Which IC50 [1] does the source give for CC(C)(O)CNC(=O)c1cccc(-c2cnc3[nH]c(-c4ccccc4)cc3c2)n1 [Compound P-0150, N-(2-hydroxy-2-methyl-propyl)-6-(2-phenyl-1H-pyrrolo[2,3-b]pyridin-5-yl)pyridine-2-carboxamide] here?
Answer: The IC50 was 0.0001 to 10 µM.

Question: And the IC50 [2]?
Answer: The IC50 was 0.0001 to 10 µM.

Question: For COc1cc(-c2cc3cc(-c4cccc(C(=O)NCC(C)(C)C#N)n4)cnc3[nH]2)ccn1 [Compound P-0154, N-(2-cyano-2-methyl-propyl)-6-[2-(2-methoxy-4-pyridyl)-1H-pyrrolo[2,3-b]pyridin-5-yl]pyridine-2-carboxamide], which IC50 [1] is on record?
Answer: Its IC50 is 0.0001 to 10 µM.

Question: And the IC50 [2]?
Answer: Its IC50 is 0.0001 to 10 µM.

Question: N#CC1CCN(C(=O)c2cccc(-c3cnc4[nH]c(-c5cnn(C(F)F)c5)cc4c3)n2)C1 (centres unmarked) [Compound P-0134, 1-[6-[2-[1-(difluoromethyl)pyrazol-4-yl]-1H-pyrrolo[2,3-b]pyridin-5-yl]pyridine-2-carbonyl]pyrrolidine-3-carbonitrile] was tested. Which IC50 [1] did it give?
Answer: Its IC50 is 0.0001 to 10 µM.

Question: What about the IC50 [2] of the same compound?
Answer: Its IC50 is 0.0001 to 10 µM.

Question: CC(C)(C#N)CNC(=O)c1cccc(-c2cnc3[nH]c(C4=CC[S+]([O-])CC4)cc3c2)n1 (centres unmarked) [Compound P-0161, N-(2-cyano-2-methyl-propyl)-6-[2-(1-oxo-3,6-dihydro-2H-thiopyran-4-yl)-1H-pyrrolo[2,3-b]pyridin-5-yl]pyridine-2-carboxamide] was tested. Which IC50 [1] did it give?
Answer: The IC50 was 0.0001 to 10 µM.

Question: What about the IC50 [2] of the same compound?
Answer: Its IC50 is 0.0001 to 10 µM.

Question: Which results are given for CC(C)(C#N)CNC(=O)c1cccc(-c2cnc3[nH]c(-c4cnn(CC(F)(F)F)c4)cc3c2)n1 [Compound P-0113, N-(2-cyano-2-methyl-propyl)-6-[2-[1-(2,2,2-trifluoroethyl)pyrazol-4-yl]-1H-pyrrolo[2,3-b]pyridin-5-yl]pyridine-2-carboxamide]?
Answer: IC50 [1]: 0.0001 to 10 µM; IC50 [2]: 0.0001 to 10 µM

Question: With CC(C)(C#N)NC(=O)c1cccc(-c2cnc3[nH]c(-c4cnn(C5CCOC5)c4)cc3c2)n1 (centres unmarked) [Compound P-0173, N-(1-cyano-1-methyl-ethyl)-6-[2-(1-tetrahydrofuran-3-ylpyrazol-4-yl)-1H-pyrrolo[2,3-b]pyridin-5-yl]pyridine-2-carboxamide] as the compound, how does the IC50 [1] read?
Answer: Its IC50 is 0.0001 to 10 µM.

Question: And the IC50 [2]?
Answer: The IC50 was 0.0001 to 10 µM.

Question: Which IC50 [1] does the source give for N#CC1CCN(C(=O)c2cccc(-c3cnc4[nH]c(C5=CCOCC5)c(Cl)c4c3)n2)C1 (centres unmarked) [Compound P-0142, 1-[6-[3-chloro-2-(3,6-dihydro-2H-pyran-4-yl)-1H-pyrrolo[2,3-b]pyridin-5-yl]pyridine-2-carbonyl]pyrrolidine-3-carbonitrile] here?
Answer: Its IC50 is 0.0001 to 10 µM.

Question: What about the IC50 [2] of the same compound?
Answer: Its IC50 is 0.0001 to 10 µM.

Question: With N#CC1(CNC(=O)c2cccc(-c3cnc4[nH]c(-c5ccccc5)c(Cl)c4c3)n2)CC1 [Compound P-0148, 6-(3-chloro-2-phenyl-1H-pyrrolo[2,3-b]pyridin-5-yl)-N-[(1-cyanocyclopropyl)methyl]pyridine-2-carboxamide] as the compound, how does the IC50 [1] read?
Answer: Its IC50 is 0.0001 to 10 µM.

Question: What about the IC50 [2] of the same compound?
Answer: Its IC50 is 0.0001 to 10 µM.

Question: For CC(C)(C#N)NC(=O)c1cccc(-c2cnc3[nH]c(C4=CCN(S(=O)(=O)C5CC5)CC4)cc3c2)n1 [Compound P-0188, N-(1-cyano-1-methyl-ethyl)-6-[2-(1-cyclopropylsulfonyl-3,6-dihydro-2H-pyridin-4-yl)-1H-pyrrolo[2,3-b]pyridin-5-yl]pyridine-2-carboxamide], which IC50 [1] is on record?
Answer: The IC50 was 0.0001 to 10 µM.

Question: And the IC50 [2]?
Answer: Its IC50 is 0.0001 to 10 µM.

Question: With CC(C)(C#N)NC(=O)c1cccc(-c2cnc3[nH]c(C4=CCN(C(=O)C5CC5)CC4)cc3c2)n1 [Compound P-0181, N-(1-cyano-1-methyl-ethyl)-6-[2-[1-(cyclopropanecarbonyl)-3,6-dihydro-2H-pyridin-4-yl]-1H-pyrrolo[2,3-b]pyridin-5-yl]pyridine-2-carboxamide] as the compound, how does the IC50 [1] read?
Answer: The IC50 was 0.0001 to 10 µM.

Question: And the IC50 [2]?
Answer: The IC50 was 0.0001 to 10 µM.

Question: How did the IC50 [1] turn out when CC(C)(C)OC(=O)N1CC=C(c2cc3cc(-c4cccc(C(=O)N5CCC(C#N)C5)n4)cnc3[nH]2)C1 (centres unmarked) [Compound P-0135, tert-butyl 3-[5-[6-(3-cyanopyrrolidine-1-carbonyl)-2-pyridyl]-1H-pyrrolo[2,3-b]pyridin-2-yl]-2,5-dihydropyrrole-1-carboxylate] was run?
Answer: Its IC50 is 0.0001 to 10 µM.

Question: What about the IC50 [2] of the same compound?
Answer: The IC50 was 0.0001 to 10 µM.

Question: With CC(C)(C#N)CNC(=O)c1cccc(-c2cnc3[nH]c(C4=CCN(C(=O)C5CC5)C4)cc3c2)n1 [Compound P-0141, N-(2-cyano-2-methyl-propyl)-6-[2-[1-(cyclopropanecarbonyl)-2,5-dihydropyrrol-3-yl]-1H-pyrrolo[2,3-b]pyridin-5-yl]pyridine-2-carboxamide] as the compound, how does the IC50 [1] read?
Answer: The IC50 was 0.0001 to 10 µM.

Question: What about the IC50 [2] of the same compound?
Answer: Its IC50 is 0.0001 to 10 µM.

From patent US9938273B2 (Plexxikon Inc., priority 2015, dated 2018)
